Measured values: US20150250746A1, “ACAMPROSATE FORMULATIONS, METHODS OF USING THE SAME, AND COMBINATIONS COMPRISING THE SAME” (Synchroneuron Inc., priority 2013, published 2015)

How the values were obtained:
[1] = Gastric retention of swellable acamprosate tablet in dog model, induction of fed mode with alpha-lipoic acid; assay type: in vivo; settings: of 800 mg swellable acamprosate tablet after 125 mg alpha-lipoic acid given 15 minutes before; four beagle dogs
tardive dyskinesia = test: Clinical cases: acamprosate in patients with tardive dyskinesia; assay type: in vivo, human; settings: for relief of TD involuntary movements: Case 2
Protocol: Case 1: A person had long-standing tardive dyskinesia induced by treatment of schizoaffective disorder with a variety of neuroleptics and mood stabilizers. Their TD was characterized by side to side movements of the jaw, grimacing movements, rocking of the trunk, and continual involuntary kicking, leg-crossing, and twisting movements of their legs and feet. At the time they presented for treatment of their TD they were treated for their mental illness with lamotrigine and quetiapine, a second-generation neuroleptic.
To test the hypothesis that the efficacy of acamprosate was related to adequate time above a threshold blood level the patient was asked to try taking 1332 mg of acamprosate once a day.
CASE 2: A person had been treated with acamprosate for several years for TD due to exposure to several neuroleptics for schizoaffective disorder. They were currently treated with lamotrigine and quetiapine for their mental illness, and was taking acamprosate 1032 mg+999 mg+1032 mg on a three times daily basis. […] To test the therapeutic threshold hypothesis the patient was asked to try 1032 mg of acamprosate once a day in the morning. […] They noted that when they got relief of their involuntary movements they also had less anxiety and agitation than when the movements were present.

[2] = tested on: cultured rat hippocampus neurons; test: Organotypic hippocampal slice model of glutamate neurotoxicity; assay type: cell-based; settings: 200 μM calcium acamprosate 8 hr or 5 days, removed from medium for up to eight hours
Protocol: The study is designed to test whether pre-treatment with acamprosate can have long-term neuronal protective effects against glutamate neurotoxicity. The study uses an in vitro organotypic hippocampal slice model. The study assesses whether less than 24 hours per day of exposure to a sufficient level of acamprosate can offer 24-hour therapeutic actions in neuropsychiatric disorders. […] This supports, among other things, the therapeutic use of acamprosate in neuropsychiatric disorders because the latter are related to the effect of acamprosate to decrease glutamate effects at NMDA and metabotropic glutamate receptors.
Hippocampal slices derived from 8-day-old Sprague Dawley rats are plated and subsequently exposed to a relatively acute (8 hour) or more chronic (5 day) acamprosate treatment. The slices are then removed from the medium containing acamprosate and returned to control medium for either 1 or 8 hours. […] The slices are then placed in normal medium with propidium iodide for 24 hr and assessed for neurotoxicity/neuroprotection as described below. […]
Neurotoxicity/neuroprotection assessment: For the final medium change, the plates are moved into normal media containing propidium iodide (PI) added to each well for 24 hours. PI only penetrates cell membranes of damaged or potentially dying cells, binding to DNA to produce a bright, intensified red fluorescence at 630 nm. […]

[3] = tested on: abnormal chewing movements; test: Rat model of tardive dyskinesia (haloperidol-induced abnormal chewing movements); assay type: in vivo; settings: steadily-maintained blood level; haloperidol-exposed rats
Protocol: Acamprosate is tested using a rat model of tardive dyskinesia looking at abnormal chewing movements produced in rats by exposing them for several weeks to haloperidol, a potent first-generation neuroleptic. […] Rats then are dosed with acamprosate in a way that matches the therapeutic blood level for no more than 12 hours out of 24, to confirm that this reduces the involuntary movements.

abnormal movements = test: Transgenic mouse models with movement disorders and hyperglutamatergic states; assay type: in vivo; settings: steadily-maintained blood level; Per2(Brdm1) deletion or ENT1(-/-) mice
[4] = cited from earlier work
[5] = in vivo; cited from earlier work

| Average gastric retention time [1] [h] | Maximum gastric retention time [1] [h] | Minimum gastric retention time [1] [h] | Structure (SMILES) | relief of TD symptoms (tardive dyskinesia; Case 1, 666 mg three times a day) | relief of TD symptoms (tardive dyskinesia; Case 1, 999 mg three times a day) | anxiety and agitation (tardive dyskinesia; Case 1, 999 mg three times a day with perphenazine) | relief of TD symptoms (tardive dyskinesia; Case 1, 1332 mg once a day) | side effects (tardive dyskinesia; Case 1, 1332 mg once a day) | relief of TD involuntary movements (tardive dyskinesia; 999 mg three times a day) | relief of TD involuntary movements (tardive dyskinesia; 1032 mg morning plus second dose of 1032 mg 8 to 10 hours later) | relief of TD involuntary movements (tardive dyskinesia; 1032 mg once a day in the morning) | relief of TD involuntary movements (tardive dyskinesia; 1032 mg+999 mg+1032 mg three times daily) | protection of neurons from challenge with a toxic level of a glutamate agonist [2] | abnormal chewing movements [3] | abnormal movements (abnormal movements) | solubility [4] | solubility in gastric juice [4] | decrease of bioavailability by food [5] |
| --- | --- | --- | --- | --- | --- | --- | --- | --- | --- | --- | --- | --- | --- | --- | --- | --- | --- | --- |
| 2.8 | 5 | 1.5 | O=C(O)CCCCC1CCSS1 (stereo not drawn) [alpha-lipoic acid] | – | – | – | – | – | – | – | – | – | – | – | – | – | – | – |
| – | – | – | CC(=O)NCCCS(=O)(=O)O [acamprosate, calcium N-acetylhomotaurinate] | partial relief of symptoms | complete relief of their TD | relief of anxiety and agitation | free of involuntary movements of TD | significant GI side effects of diarrhea and abdominal cramps | did not give full relief | complete relief of symptoms | free of movements in the morning and early afternoon but movements returned in the evening | completely relieved their involuntary movements of TD | persistent effect | reduce or eliminate the abnormal movements | reduce or eliminate the abnormal movements | high solubility | immediately and completely soluble | approximately 30% |
